Results published in US6815557B2, “Tryptase inhibitors” (Altana Pharma AG, priority 1999, dated 2004).
Counter-ions that a name gives are not always drawn.

molecular target: human tryptase; experiment: Inhibition of human tryptase (apparent dissociation constant Kiapp, chromogenic substrate tos-Gly-Pro-arg-pNA, heparin-stabilized); format: biochemical; settings: apparent dissociation constant in the presence of substrate; human tryptase from lung tissue or recombinant; heparin 0.1-50 μg/ml; equilibrium conditions
Source text: The documented pathophysiological effects of mast cell tryptase are caused directly by the enzymatic activity of the protease. Accordingly, they are reduced or blocked by inhibitors which inhibit the enzymatic activity of the tryptase. A suitable measure for the affinity of a reversible inhibitor to the target protease is the equilibrium dissociation constant Ki of the enzyme-inhibitor complex. This Ki value can be determined via the effect of the inhibitor on the tryptase-induced cleavage of a chromogenic peptide-p-nitroanilide substrate or a fluorogenic peptide-aminomethylcoumarin substrate.
The dissociation constants for the tryptase-inhibitor complexes are determined under equilibrium conditions in accordance with the general proposals of Bieth (Bieth J G, Pathophysiological Interpretation of kinetic constants of protease inhibitors, Bull. Europ. Physiopath. Resp. 16:183-195, 1980) and the methods of Sommerhoff et al. (Sommerhoff C P et al., A Kazal-type inhibitor of human mast cell tryptase: Isolation from the medical leech Hirudo medicinalis, characterization, and sequence analysis, Biol. Chem. Hoppe-Seyler 375: 685-694, 1994).
Human tryptase is isolated from lung tissue or prepared recombinantly; the specific activity of the protease, determined by titration, is usually greater than 85% of the theoretical value. […] After an equilibrium between the reaction partners has formed, the remaining enzyme activity after addition of the peptide-p-nitroanilide substrate tos-Gly-Pro-arg-pNA is determined and the cleavage of the latter is monitored at 405 nm for 3 min. Alternatively, the remaining enzymatic activity can also be determined using fluorogenic substrates. The apparent dissociation constants Kiapp (i.e. in the presence of substrate) are subsequently determined by adapting the enzyme rates to the general equation for reversible inhibitors (Morrison J F, Kinetics of the reversible inhibition of enzyme-catalyzed reactions by tight-binding inhibitors, Biochim. Biophys. Acta 185, 269-286, 1969) using non-linear regression: […]

Row | Ki | Compound
1 | 6 nM | NCc1cccc(CNC(=O)OCCOCC#CCOCCOC(=O)NCc2cccc(CN)c2)c1 [Compound 1, 1,4-Bis-(3-aminomethylbenzylaminocarbonyl-1,2-dioxyethyl)-2-butyne dihydrochloride]
2 | 100 nM | NCc1cccc(CNC(=O)OCC#CCOC(=O)NCc2cccc(CN)c2)c1 [Compound 3, 1,4-Bis-(3-aminomethylbenzylaminocarbonyl-1-oxy)-2-butyne dihydrochloride]
3 | 450 nM | NCc1ccc(CNC(=O)OCC#CC#CCOC(=O)NCc2ccc(CN)cc2)cc1 [Compound 2, 1,6-Bis-(4-aminomethylbenzylaminocarbonyl-1-oxy-2,4-hexadiynedihydrochloride]
